Results as given in patent publication US9771559B2, “Methods and compositions for stem cell self-renewal” (Stowers Institute for Medical Research, priority 2007, dated 2017).
Where two headings read alike, the source gives them in different places.

How the values were obtained:
[1] = tested on: LSK Flk2^− cells; assay: Ex vivo culture and expansion of sorted LSK Flk2- cells in media with PTEN and/or GSK-3β inhibitors; type: cell-based, wild-type (C57Bl/6) mice; conditions: 1 μM CHIR99021, 200 nM BpV(pic); for expansion of LSK cells compared to control: 100 LSK Flk2- cells seeded, 17 and 23 days culture; for Fold expansion of LSK Flk2- cells after 28 days culture: compared to media without inhibitor
Experimental: LSK or LSK Flk2^− cells were sorted into 96-well U-bottom tissue culture plates at 100 cells/well with 200 μl media/well. Cells were incubated at 37° C., 5% O2, 5% CO2 (balance N2) for the indicated number of days. One-half total volume of media (see Table 1, below for the base media) was carefully pipetted from the top and replaced with fresh media every other day.
One hundred LSK Flk2^− cells were sorted from wild-type (C57Bl/6) mice and cultured in (1) media, (2) media+1 μM CHIR99021 (a GSK-3(3β inhibitor, a gift from Dr. Sheng Ding), (3) media+200 nM Dipotassium Bis-peroxo(picolinato)oxovanadate (BpV(pic), a PTEN inhibitor, available from Calbiochem, Cat. No. 203705), (4) media+1 μM CHIR99021+200 nM BpV(pic), (5) media+200 nM Shikonin (also a PTEN inhibitor, available from Calbiochem, Cat. No. 565850), and (6) media+200 nM Shikonin+1 μM CHIR99021. (FIGS. 3B-C). Cells were cultured as described above. Cells were examined at 17 days of culture (FIG. 3B, original magnification 100×) and 23 days (FIG. 3C, original magnification 40×).
LSK Flk2^− cells at 28 days culture in the indicated media conditions were examined (FIG. 3D, original magnification 200×).
Fold expansion of LSK Flk2^− cells after 28 days culture in (1) media, (2) media+BpV(pic), (3) media+CHIR99021, and (4) media+CHIR99021+BpV(pic) were analyzed.
One hundred LSK Flk2^− cells are sorted from wild-type (C57Bl/6) mice and are cultured in (1) media, (2) media+an GSK-3β antibody, (3) media+an anti-PTEN antibody, and (4) media+anti-GSK-3β and anti-PTEN antibodies. Cells are cultured as described above. Cells are examined at 9 days, 17 days and 23 days of culture.
One hundred LSK Flk2^− cells are sorted from wild-type (C57Bl/6) mice and are cultured in (1) media, (2) media+GSK-3β siRNA, (3) media+PTEN siRNA, and (4) media+GSK-3β siRNA and PTEN siRNA. Cells are cultured as described above. Cells are examined at 9 days, 17 days and 23 days of culture.

[2] = tested on: lethally irradiated (10Gy) CD45.1^+ recipient mice; assay: Transplantation of cultured LSK Flk2- cells into lethally irradiated recipients; donor repopulation in peripheral blood; type: in vivo; conditions: 28-day cultures; 1000 re-sorted LSK Flk2- cells (CD45.2+) + 2×10^5 competitor cells per mouse; peripheral blood at 4 weeks post-transplant
Text: Cells were harvested from the wells prior to transplantation by pipetting up and down several times before transferring to a fresh tube. Residual was then collected by adding more media and repeating. Cells were washed in DMEM (Invitrogen, Cat. No. 31053) without phenol red and added to the appropriate number of whole bone marrow rescue cells from a congenic donor (for 200,000 rescue cells+1,000 re-sorted LSK Flk2^− cells (FIG. 3F-H) or the non-adherent product of 10 days culture of 100 LSK Flk2^− cultured cells (FIG. 3I-K) per mouse as indicated). Cells were injected into lethally irradiated (10 Grays, single dose) Ptprc (CD45.1^+) recipient mice through the tail vein using an insulin syringe.
Repopulation was measured at 4 weeks post-transplant by collection of peripheral blood, red blood cell lysis, and staining of CD45.1 (recipient) compared to CD45.2 (donor) engraftment using antibodies purchased from eBiosciences (FITC conjugated CD45.2 (Cat. No. 11-0454-85) and PE-Cy5 conjugated CD45.1 (Cat. No. 15-0453-82)). Mice transplanted with rescue/competitor cells only were used as a control to determine the limits of repopulation detection. Multi-lineage reconstitution was determined by CD3, B220 (for lymphoid) and Gr1, Mac-1 (for myeloid), as described above.
Cells cultured for 28 days in (1) media, (2) media+BpV(pic), (3) media+CHIR99021 and (4) media+CHIR99021 (1 μM)+BpV(pic) (200 nM) were re-sorted for LSK Flk2^− cells. One thousand LSK Flk2^− cells (CD45.2^+) from each media condition were transplanted into lethally irradiated (10Gy) CD45.1^+ recipient mice along with 2×10^5 congenic whole bone marrow competitor cells. At 4 weeks post-transplant, peripheral blood was analyzed for donor (FIG. 3G) and multi-lineage (FIG. 3H) engraftment. […] The horizontal-dashed line represents the average ‘engraftment’ of mice transplanted with competitor cells only and, thus, the limit of detectability for true engraftment.

[3] = tested on: lethally irradiated (10Gy) CD45.1^+ recipient mice; conditions: mouse, in vivo
[4] = tested on: lethally irradiated (10Gy) CD45.1^+ recipient mice; assay: Observation of transplant recipients for leukogenesis and health; conditions: recipients of LSK Flk2- cells cultured with inhibitor(s); up to 16 weeks post-transplantation

Molecule	expansion of LSK cells compared to control [1]	Fold expansion of LSK Flk2- cells after 28 days culture [1]	mice showing >1% engraftment [2]	mice showing any sign of leukogenesis [3]	mice showing any sign of leukogenesis [4]
Dipotassium Bis-peroxo(picolinato)oxovanadate [BpV(pic)]	greater expansion	significant expansion	0/10	no mice	
Cc1c[nH]c(-c2cnc(NCCNc3ccc(C#N)cn3)nc2-c2ccc(Cl)cc2Cl)n1 [CHIR99021]	greater expansion	significant expansion	4/8		no mice
